± gives the standard deviation of the averaged measurements.
Experiments:
[1] = compound: O=C(NOCC1CC1)c1ccc(F)c(F)c1Nc1ccc(I)cc1Cl; test: surviving fraction relative to DMSO-only wells; higher = less growth inhibition; details: exposure time: 5 days
Summary of the method: (§1)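 Surviving fraction is CellTiter-Glo luminescence divided by the median of wells given DMSO only. For this, log-phase tumour cell lines went into 384-well plates at 250–500 cells per well and, 24 hours later, into five days of continuous inhibitor exposure at 0.5, 1, 5, 10, 50, 100, 500 and 1000 nM. Lines were screened three times and retained only if replicate Pearson r >0.7 and median Z' >0.3.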

[2] = compound: O=C(O)CC[C@H]1CC[C@@](c2cc(F)ccc2F)(S(=O)(=O)c2ccc(Cl)cc2)CC1 [MK0752]; test: as above; details: exposure time: 5 days
Summary of the method: as §1

Test System | surviving fraction ([1]; 0.5 nM) | surviving fraction ([1]; 1 nM) | surviving fraction ([1]; 5 nM) | surviving fraction ([1]; 10 nM) | surviving fraction ([1]; 50 nM) | surviving fraction ([1]; 100 nM) | surviving fraction ([1]; 500 nM) | surviving fraction ([1]; 1000 nM) | surviving fraction ([2]; 0.5 nM) | surviving fraction ([2]; 1 nM) | surviving fraction ([2]; 5 nM) | surviving fraction ([2]; 10 nM) | surviving fraction ([2]; 50 nM) | surviving fraction ([2]; 100 nM) | surviving fraction ([2]; 500 nM) | surviving fraction ([2]; 1000 nM)
HU09 BONE | 0.968 ± 0.024 | 1 ± 0.15 | 1.06 ± 0.073 | 1.06 ± 0.11 | 0.995 ± 0.1 | 1.03 ± 0.12 | 0.894 ± 0.044 | 0.905 ± 0.066 | 0.995 ± 0.11 | 1.06 ± 0.052 | 1.11 ± 0.052 | 1.181 ± 0.0032 | 1.12 ± 0.069 | 1.06 ± 0.088 | 0.984 ± 0.14 | 1.03 ± 0.063
JIMT1 BREAST | 0.957 ± 0.056 | 0.967 ± 0.039 | 0.997 ± 0.032 | 0.997 ± 0.02 | 0.955 ± 0.013 | 0.956 ± 0.017 | 0.8092 ± 0.0039 | 0.7653 ± 0.0068 | 0.966 ± 0.0054 | 0.988 ± 0.018 | 0.997 ± 0.042 | 0.97 ± 0.042 | 0.984 ± 0.021 | 1.04 ± 0.036 | 0.939 ± 0.021 | 0.997 ± 0.018
JURKAT HAEMATOPOIETIC AND LYMPHOID TISSUE | 1.03 ± 0.012 | 1.032 ± 0.0095 | 1.04 ± 0.016 | 1.02 ± 0.044 | 0.98 ± 0.011 | 1 ± 0.014 | 1.03 ± 0.013 | 0.994 ± 0.033 | 1.06 ± 0.026 | 1.07 ± 0.021 | 1.07 ± 0.012 | 1.02 ± 0.051 | 1.04 ± 0.017 | 1.01 ± 0.026 | 0.988 ± 0.04 | 0.976 ± 0.023
KPD BONE | 1.17 ± 0.41 | 0.967 ± 0.047 | 1.032 ± 0.007 | 0.977 ± 0.037 | 0.986 ± 0.065 | 0.96 ± 0.032 | 0.968 ± 0.041 | 0.922 ± 0.055 | 0.998 ± 0.054 | 0.986 ± 0.046 | 1.12 ± 0.042 | 1.05 ± 0.035 | 1.053 ± 0.0087 | 1.1 ± 0.073 | 0.951 ± 0.067 | 0.915 ± 0.06
LM7 BONE | 0.983 ± 0.049 | 1.01 ± 0.041 | 1.1 ± 0.12 | 1 ± 0.024 | 1.02 ± 0.073 | 0.943 ± 0.1 | 0.821 ± 0.011 | 0.853 ± 0.089 | 0.915 ± 0.045 | 0.93 ± 0.078 | 1.08 ± 0.096 | 0.996 ± 0.098 | 1.03 ± 0.035 | 1.05 ± 0.048 | 0.937 ± 0.11 | 0.945 ± 0.063
MCF7 BREAST | 0.843 ± 0.041 | 0.87 ± 0.035 | 0.848 ± 0.02 | 0.849 ± 0.028 | 0.874 ± 0.029 | 0.867 ± 0.045 | 0.849 ± 0.022 | 0.841 ± 0.06 | 0.922 ± 0.075 | 0.916 ± 0.04 | 0.916 ± 0.0061 | 0.905 ± 0.076 | 0.976 ± 0.051 | 0.913 ± 0.07 | 0.964 ± 0.067 | 0.94 ± 0.029
MDAMB134 BREAST | 0.871 ± 0.27 | 1.03 ± 0.16 | 0.933 ± 0.067 | 0.869 ± 0.075 | 0.809 ± 0.097 | 0.732 ± 0.11 | 0.556 ± 0.044 | 0.711 ± 0.15 | 1.08 ± 0.067 | 1.14 ± 0.093 | 0.96 ± 0.16 | 1.16 ± 0.079 | 0.922 ± 0.035 | 1.09 ± 0.14 | 1 ± 0.063 | 0.934 ± 0.014
MDAMB157 BREAST | 0.877 ± 0.043 | 0.86 ± 0.12 | 0.929 ± 0.1 | 0.928 ± 0.069 | 0.85 ± 0.02 | 0.866 ± 0.037 | 0.787 ± 0.035 | 0.664 ± 0.013 | 0.881 ± 0.054 | 0.981 ± 0.045 | 0.969 ± 0.14 | 1.05 ± 0.022 | 1.11 ± 0.16 | 1.02 ± 0.15 | 0.971 ± 0.07 | 0.962 ± 0.065
MDAMB231 BREAST | 0.963 ± 0.011 | 0.994 ± 0.035 | 1 ± 0.024 | 1.02 ± 0.032 | 0.969 ± 0.024 | 0.912 ± 0.022 | 0.65 ± 0.039 | 0.52 ± 0.02 | 0.984 ± 0.033 | 0.993 ± 0.015 | 1.02 ± 0.019 | 1.01 ± 0.02 | 1.01 ± 0.013 | 1.01 ± 0.018 | 0.9137 ± 0.0079 | 0.877 ± 0.01
MDAMB361 BREAST | 1.06 ± 0.12 | 0.887 ± 0.067 | 0.986 ± 0.076 | 0.973 ± 0.029 | 0.963 ± 0.083 | 1.03 ± 0.019 | 1.05 ± 0.072 | 0.972 ± 0.12 | 0.833 ± 0.044 | 0.904 ± 0.077 | 0.873 ± 0.044 | 0.851 ± 0.084 | 0.893 ± 0.06 | 0.91 ± 0.064 | 0.884 ± 0.056 | 0.825 ± 0.073
MDAMB436 BREAST | 0.904 ± 0.065 | 0.905 ± 0.024 | 0.932 ± 0.026 | 0.883 ± 0.029 | 0.8685 ± 0.0053 | 0.959 ± 0.085 | 0.944 ± 0.023 | 0.78 ± 0.016 | 0.928 ± 0.052 | 0.895 ± 0.12 | 0.885 ± 0.051 | 0.901 ± 0.097 | 1.02 ± 0.13 | 0.881 ± 0.08 | 0.897 ± 0.062 | 0.856 ± 0.036
MDAMB453 BREAST | 0.958 ± 0.033 | 1.02 ± 0.062 | 1.02 ± 0.072 | 0.992 ± 0.046 | 1.03 ± 0.094 | 1.05 ± 0.028 | 1.02 ± 0.06 | 1.06 ± 0.03 | 1.04 ± 0.078 | 1.06 ± 0.052 | 1.1 ± 0.023 | 1.09 ± 0.051 | 1.08 ± 0.049 | 1.14 ± 0.034 | 1.01 ± 0.029 | 1.07 ± 0.043
MDAMB468 BREAST | 0.938 ± 0.079 | 0.983 ± 0.083 | 1.02 ± 0.029 | 1 ± 0.11 | 0.933 ± 0.046 | 0.998 ± 0.038 | 0.885 ± 0.029 | 0.913 ± 0.0098 | 1.03 ± 0.085 | 1.01 ± 0.074 | 1.1 ± 0.035 | 1.07 ± 0.07 | 1.17 ± 0.023 | 1.17 ± 0.028 | 1.07 ± 0.035 | 1.1 ± 0.035
MFM223 BREAST | 1.09 ± 0.046 | 1.06 ± 0.088 | 1.05 ± 0.059 | 1.07 ± 0.089 | 1.14 ± 0.037 | 1.12 ± 0.057 | 1.012 ± 0.0095 | 1.04 ± 0.03 | 1.21 ± 0.047 | 1.14 ± 0.13 | 1.16 ± 0.048 | 1.155 ± 0.0068 | 1.19 ± 0.03 | 1.23 ± 0.016 | 1.19 ± 0.1 | 1.19 ± 0.067
MG63 BONE | 0.9313 ± 0.0065 | 0.969 ± 0.018 | 0.976 ± 0.016 | 0.997 ± 0.017 | 0.935 ± 0.0096 | 0.957 ± 0.011 | 0.85 ± 0.018 | 0.859 ± 0.022 | 1.07 ± 0.047 | 1.07 ± 0.033 | 1.11 ± 0.037 | 1.08 ± 0.022 | 1.13 ± 0.055 | 1.1 ± 0.029 | 0.987 ± 0.029 | 0.955 ± 0.02
MHM BONE | 0.947 ± 0.024 | 0.906 ± 0.095 | 0.992 ± 0.013 | 1.01 ± 0.015 | 0.974 ± 0.028 | 0.971 ± 0.048 | 0.926 ± 0.022 | 0.931 ± 0.032 | 1 ± 0.032 | 1.04 ± 0.029 | 1.06 ± 0.029 | 1.06 ± 0.043 | 1.08 ± 0.029 | 1.08 ± 0.013 | 0.975 ± 0.025 | 0.989 ± 0.026
NCIH441 LUNG | 0.939 ± 0.093 | 0.968 ± 0.084 | 0.945 ± 0.026 | 0.984 ± 0.041 | 0.909 ± 0.013 | 0.846 ± 0.031 | 0.722 ± 0.023 | 0.757 ± 0.053 | 0.971 ± 0.21 | 1 ± 0.17 | 1.11 ± 0.057 | 1.08 ± 0.099 | 1.02 ± 0.03 | 1.05 ± 0.061 | 1.07 ± 0.11 | 0.974 ± 0.065
NOS1 BONE | 1.15 ± 0.08 | 1.15 ± 0.075 | 1.16 ± 0.057 | 1.16 ± 0.062 | 0.949 ± 0.065 | 0.952 ± 0.1 | 0.863 ± 0.054 | 0.773 ± 0.016 | 1.08 ± 0.058 | 1.19 ± 0.087 | 1.16 ± 0.12 | 1.27 ± 0.068 | 1.16 ± 0.042 | 1.28 ± 0.23 | 1.05 ± 0.083 | 1.08 ± 0.032
NY BONE | 0.923 ± 0.029 | 0.9257 ± 0.0055 | 0.953 ± 0.02 | 0.975 ± 0.023 | 0.97 ± 0.026 | 0.993 ± 0.028 | 0.93 ± 0.024 | 0.921 ± 0.037 | 1.04 ± 0.025 | 1.07 ± 0.03 | 1.11 ± 0.017 | 1.11 ± 0.052 | 1.07 ± 0.036 | 1.1 ± 0.02 | 1.02 ± 0.042 | 1.06 ± 0.034
OS25HAL BONE | 0.951 ± 0.024 | 0.964 ± 0.02 | 0.931 ± 0.033 | 0.971 ± 0.025 | 0.955 ± 0.015 | 0.989 ± 0.012 | 0.943 ± 0.012 | 0.954 ± 0.024 | 1 ± 0.016 | 1.04 ± 0.029 | 1.022 ± 0.0072 | 0.99 ± 0.04 | 1.09 ± 0.0091 | 1.1 ± 0.048 | 1.02 ± 0.057 | 1.07 ± 0.02
